# Data as given in patent US20020193283A1, “Inhibitors of prenyl-protein transferase” (priority 2000, published 2002).
# Assay: the assays disclosed below (unspecified, Examples 10-17)
# Conditions: assays not specified
compound,measurement,value
"Cc1ncc(CN2CCN(C(=O)OC(C)(C)C)CC2)n1Cc1ccc(C#N)c(Oc2cccc(OCCO)c2)c1 [Example 1 Step G, 1-(tert-butoxycarbonyl)-4-[1-(3-((3-(2-hydroxyethoxy)phenyl)oxy)-4-cyanobenzyl)-2-methyl-5-imidazolylmethyl]piperazine]",activity in the assays disclosed below,active
